Data reported in the METLIN SMRT retention time set (Domingo-Almenara et al. 2019).

Assay: gradient 5% acetonitrile 3 min, to 50% in 2 min, to 85% in 15 min, held 3 min, 100 µL/min
Conditions: column: Zorbax Extend-C18 2.1 x 50 mm; eluents: water / acetonitrile, 0.1% formic acid
In short: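 Values are retention times taken from adduct peaks that software picked and an analyst inspected. The pure standards were run as mixtures of ~100 molecules on HPLC linked to a quadrupole time-of-flight mass spectrometer, in positive and negative ionization mode. A Zorbax Extend-C18 column (2.1 × 50 mm, 1.8 μm) was used at 100 μL/min with water and acetonitrile, each including 0.1% formic acid.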

Row | RP-LC retention time [s] | SMILES
1 | 748 | Cc1ccc(-n2nc3c(N4CCCC(C(=O)NCCc5cccs5)C4)nnc(C)c3c2C)cc1 (stereo not given)
2 | 663 | CCOC(=O)c1c(C)c(CCC(=O)NCc2cn[nH]c2C)n(C)c1C
3 | 906 | CC1(C)CC(=O)C2=C(C1)N(CC1CCCO1)C(=O)C2(NC(=O)c1ccccc1)C(F)(F)F (stereo not given)
4 | 804 | O=C1[C@H]2CN(Cc3cccc(F)c3)C[C@H]2C(=O)N1CCc1ccccc1
5 | 671 | Cc1cccc(Nc2c(-c3ccccc3)nc3ncccn23)c1C
6 | 909 | O=C(Cn1ccc2ccc(N3CCOCC3)nc21)NCc1cccc(Cl)c1
7 | 1020 | CCc1nc(-c2csc(S(=O)(=O)N3CCCC(C(=O)Nc4ccc(F)cc4C)C3)c2)no1 (stereo not given)
8 | 613 | COc1ccc(-c2ccc(N3CCCC(C(=O)NCc4cccs4)C3)nn2)cc1 (stereo not given)
9 | 764 | O=C(CCCn1nc(-c2ccccc2)c2cc(Cl)ccc21)N1CCN(c2ccccn2)CC1
10 | 674 | c1ccc(-c2noc(-c3ccc(OC4CNC4)cc3)n2)cc1
11 | 888 | CNC(=O)c1cc2nc(N(C)C)n(-c3ccc(OC)cc3)c2s1
12 | 654 | CCCNC(=O)CCNc1c(-c2ccc(C)cc2)nc2cnccn12
13 | 719 | Cc1c(Cl)cccc1N1CCn2c1nc1c2c(=O)n(CC(=O)O)c(=O)n1C
14 | 828 | CSc1cccc(NC(=O)N2CCC(c3nc(C(=O)N4CCCCC4)c(C)o3)CC2)c1
15 | 582 | CCOC(=O)CNC(=O)Nc1ccc2nc(N3CCOCC3)cc(C)c2c1
16 | 938 | COc1cc(-c2noc(C3CC(=O)N(c4ccc(C)cc4C)C3)n2)cc(OC)c1OC (stereo not given)
17 | 651 | CCCCn1c(C(C)NC(=O)c2ccco2)nc2ccccc21 (stereo not given)
18 | 735 | COc1cc(NC(=O)CCSc2nc3c(=O)n(C)c(=O)n(C)c3n2C)c(OC)cc1Cl
19 | 873 | CN(C)S(=O)(=O)c1ccc(C(=O)N2CC(=O)Nc3ccc(Cl)cc3C2c2ccccc2)cc1 (stereo not given)
20 | 807 | O=C(CCc1c[nH]c2ccccc12)N1CCN(C(=O)c2cc(-c3ccncc3)n[nH]2)CC1
21 | 935 | CC(=O)N1c2ccc(S(=O)(=O)N3CCCC3C(=O)Nc3nc4ccc(C)cc4s3)cc2CC1C (stereo not given)
22 | 578 | O=C(Nc1c(-c2ccc(F)cc2)nc2ccccn12)C1CC1

Row | RP-LC retention time [s] | SMILES
23 | 595 | CC(C)NC(=O)C1CCCN(c2cc(=O)n(C)c(=O)n2C)C1 (stereo not given)
24 | 1050 | O=C(c1ccc(Cl)cc1)N1CCCCC(Sc2ncnc3sccc23)C1=O (stereo not given)
25 | 607 | Cc1sc(-c2nnc(C(=O)N3CCCC3)o2)cc1S(=O)(=O)N1CCN(C)CC1
26 | 643 | O=C(Nc1ccc2c(c1)OCCO2)c1coc(NC(=O)C2CC2)n1
27 | 668 | CCn1cnc(S(=O)(=O)N2CCC(C(=O)N3CCN(c4ccc(OC)cc4)CC3)CC2)c1
28 | 559 | FC(F)(F)c1nc(N2CCN(C(c3ccccc3)c3ccccc3)CC2)nc2c1CCCCC2
29 | 1090 | CCN(CC)S(=O)(=O)c1ccc(C)c(-c2nnc(-c3ccccc3)o2)c1
30 | 725 | Clc1cccc(N2CCN(c3ncnc4[nH]ncc34)CC2)c1
31 | 799 | Cc1ccc(S(=O)(=O)N2CCC(N3CCN(Cc4ccccc4)C(=O)C3=O)CC2)cc1Cl
32 | 1220 | CCOc1ccc(-n2cc(C(=O)OCC(=O)OC(C)(C)C)c3ccccc3c2=O)cc1
33 | 1130 | CCOC(=O)C1CCN(S(=O)(=O)c2ccc(Cl)c(-c3nnc(-c4ccccc4)o3)c2)CC1
34 | 854 | COc1ccc(-c2nc3ncc4c(=O)n(CCc5ccc(OC)c(OC)c5)ccc4n3n2)cc1
35 | 957 | COc1cc(OC)c(NC(=O)N(C)CCc2noc(COc3ccccc3)n2)cc1Cl
36 | 1050 | CCN1C=C(C(=O)OCc2cccc(Cl)c2)C(C)=NS1(=O)=O
37 | 752 | COc1ccc(CC(=O)N2CCC3(CC2)C(=O)N(C)c2ccccc23)cc1OC
38 | 603 | COC(=O)c1c[n+]([O-])ccc1OC
39 | 627 | O=C(Nc1ccc(F)c(Cl)c1)N1CCN(CCn2c(-c3ccncc3)nc3cccnc32)CC1
40 | 899 | Cc1ccc(NC(=O)NC2CCN(c3ccc(F)c(C)c3)C2=O)cc1C (stereo not given)
41 | 988 | CCc1ccc(N2CC(c3nc(-c4cc(OC)c(OC)c(OC)c4)no3)CC2=O)cc1 (stereo not given)
42 | 651 | CCOc1ccc(S(=O)(=O)N2CCC3(CC2)c2nccn2CCN3C)cc1
43 | 755 | COc1ccc(-c2nc3c(C)cccn3c2Nc2ccccc2C)cc1
44 | 633 | COCCN1C(=O)[C@H]2CN(Cc3cc(Br)ccc3OC)C[C@H]2C1=O

Row | RP-LC retention time [s] | SMILES
45 | 1020 | CC(C)N1C(=O)c2cccnc2Sc2cc(NC(=O)C3(c4ccccc4)CC3)ccc21
46 | 905 | COc1ccc(-c2ccnc3nc(CC(C)C)nn23)cc1
47 | 892 | O=C(Nc1ccc(C(=O)N2CCOCC2)cc1)c1cnn2c(C(F)F)cc(-c3ccccc3)nc12
48 | 666 | O=C(Cc1nc(-c2ccccn2)n[nH]1)Nc1ccc(Cl)cc1
49 | 590 | O=C(CN1C(=O)C2CCCCN2C(=O)c2ccccc21)NCCN1CCCCCC1 (stereo not given)
50 | 599 | O=C(NCCCN1CCOC(c2ccccc2)C1)c1ccc(Cl)cc1Cl (stereo not given)
51 | 658 | COc1cccc(Oc2nccnc2N2CCC(C(=O)N3CCN(c4ccccn4)CC3)CC2)c1
52 | 762 | Cc1cccc(CNC(=O)C2CCN(C(=O)C3Sc4ccccc4NC3=O)CC2)c1 (stereo not given)
53 | 966 | Cc1sc(-c2ccn[nH]2)cc1NC(=O)CCc1ccccc1
54 | 987 | CCOc1ccc(-c2noc(Cn3c(=O)n(-c4ccc(C)cc4)c(=O)c4sccc43)n2)cc1OC
55 | 676 | CC1CCCCN1S(=O)(=O)c1ccc2c(c1)CCC(=O)N2CC(=O)NCc1ccc(N(C)C)cc1 (stereo not given)
56 | 532 | Cc1nnc(NC(=O)CSc2nnc(-c3ccc(=O)n(C)c3)n2C)s1
57 | 808 | Cc1ccc(C(=O)N2CCc3ccc(CNC(=O)NC(C)C)cc32)cc1
58 | 591 | CNC(=O)c1cc(-c2ccccc2)n(C)c1C
59 | 982 | COc1cccc(NC(=O)Cn2c(=O)cc(-c3nc(C(C)C)no3)c3ccccc32)c1
60 | 844 | Cc1nc(-c2csc(S(=O)(=O)N3CCC(C(=O)NCc4ccccc4)CC3)c2)no1
61 | 718 | CCOc1cccc2cc(C(=O)N3CCOCC3)oc12
62 | 860 | CCOC(=O)C1=C(C)NC2=C(C(=O)C(C(=O)OC)C(C)C2)C1c1ccc(OC)cc1 (stereo not given)
63 | 683 | O=C(c1n[nH]c2ccccc12)N1CCC[C@H]1c1nc(-c2ccccc2)n[nH]1
64 | 592 | Cc1c(Cl)cccc1NC(=O)N1CCc2nc[nH]c2C1
65 | 867 | COc1cc(-c2nnc(SCC(=O)N3CCCCC3C)o2)cc(OC)c1OC (stereo not given)
